# In patent EP4534542A1, “THIOSUGAR BASED ISOTHIOCYANATES AND USES THEREOF” (Universidad de Sevilla, priority 2023, dated 2025):
# Read-outs that look alike come from different tables or passages of the source.
# What was measured:
# [1] = system: MeWo (human melanoma cells); test: Cell viability assay (resazurin), cytotoxic activity against solid tumours; format: cell-based; conditions: for IC50: Homo sapiens, MeWo, read-out: IC50 MeWo (Melanoma; BRAF WT); for S.I. MeWo (Selectivity Index): IC50 HaCaT divided by IC50 MeWo, mean of independent experiments
# Experimental: (§1) Cells were grown in Dulbecco's Modified Eagle's Medium (DMEM) supplemented with 100 U/mL penicillin, 100 µg/mL streptomycin and 10% fetal bovine serum. HL60 cell line (acute myeloid leukaemia, AML) was obtained from ATCC. It was cultured in IMDM medium supplemented with 100 U/mL penicillin, 100 µg/mL streptomycin and 10% fetal bovine serum. U937 (AML) and Jurkat cells (ALL) were obtained from DMSZ, Braunschweig, Germany, and ATCC, respectively. They were cultivated in RPMI medium, supplemented with 100 U/mL penicillin, 100 µg/mL streptomycin and 10% fetal bovine serum. […] All cell lines were cultured at 37 ° C with 5% CO2 in a humidified incubator. Cell culture reagents were purchased from Biowest. Exponentially growing cells (3000-6000 cells per well) were seeded in 96-well plates. After 24 hours, cells were treated with the drugs for 72 hours. The cell viability was then estimated with the resazurin assay, a colorimetric technique based on the capability of viable cells to reduce the blue reagent resazurin to the pink-soluble product resorufin. The amount of resorufin produced is proportional to the number of viable cells. Briefly, cells were washed once with phosphate buffered saline (PBS) and 150 µL resazurin (20 µg/mL in medium) was added to each well. […] Cell viability was calculated as a percentage compared to non-treated cells. The results were expressed as the means ± standard error of the mean (SEM). All data are from at least three independent experiments. The selectivity index (S.I.) values were calculated over each cancer cell line as the mean of the IC50 value in the non-malignant cell line (HaCaT) by the IC50 in the respective cancer cell line obtained in each independent experiment.
# [2] = system: A549 (human lung adenocarcinoma cells); test: as above; format: cell-based; conditions: for IC50: Homo sapiens, read-out: IC50 A549 (Lung adenocarcino ma); for S.I. A549 (Selectivity Index): IC50 HaCaT divided by IC50 A549, mean of independent experiments
# Experimental: as §1
# [3] = system: T24 (human bladder cancer cells); test: as above; format: cell-based; conditions: for IC50: Homo sapiens, read-out: IC50 T24 (Bladder cancer); for S.I. T24 (Selectivity Index): IC50 HaCaT divided by IC50 T24, mean of independent experiments
# Experimental: as §1
# HaCaT cells = test: Cell viability assay (resazurin), cytotoxicity in non-malignant cells; format: cell-based, human; conditions: Homo sapiens, HaCaT, read-out: IC50 HaCaT (Non-malignant keratinocyte)
# Experimental: Cells were grown in Dulbecco's Modified Eagle's Medium (DMEM) supplemented with 100 U/mL penicillin, 100 µg/mL streptomycin and 10% fetal bovine serum. HL60 cell line (acute myeloid leukaemia, AML) was obtained from ATCC. It was cultured in IMDM medium supplemented with 100 U/mL penicillin, 100 µg/mL streptomycin and 10% fetal bovine serum. U937 (AML) and Jurkat cells (ALL) were obtained from DMSZ, Braunschweig, Germany, and ATCC, respectively. They were cultivated in RPMI medium, supplemented with 100 U/mL penicillin, 100 µg/mL streptomycin and 10% fetal bovine serum. […] All cell lines were cultured at 37 ° C with 5% CO2 in a humidified incubator. Cell culture reagents were purchased from Biowest. Exponentially growing cells (3000-6000 cells per well) were seeded in 96-well plates. After 24 hours, cells were treated with the drugs for 72 hours. The cell viability was then estimated with the resazurin assay, a colorimetric technique based on the capability of viable cells to reduce the blue reagent resazurin to the pink-soluble product resorufin. The amount of resorufin produced is proportional to the number of viable cells. Briefly, cells were washed once with phosphate buffered saline (PBS) and 150 µL resazurin (20 µg/mL in medium) was added to each well. The plates were incubated for 3 hours at 37 °C, 5% CO2, and finally optical densities were measured at 540 and 620 nm with a multiwell plate spectrophotometer reader (Multiskan EX Labsystems). Cell viability was calculated as a percentage compared to non-treated cells. The results were expressed as the means ± standard error of the mean (SEM). All data are from at least three independent experiments.
# OPM-2 (Multiple myeloma) = test: Antileukemic activity, cell viability (CCK-8 Cell Counting Kit); format: cell-based; conditions: Homo sapiens, 18 h incubation, compounds 0 - 100 µM, read-out: IC50 Cancer cells OPM-2 (Multiple myeloma)
# Experimental: (§2) HaCaT cells (human keratinocytes, reference control), A549 (human lung adenocarcinoma cells), MeWo (human melanoma cells) and T24 (human bladder cancer cells) were purchased from Cell Lines Service (CLS). Cells were grown in Dulbecco's Modified Eagle's Medium (DMEM) supplemented with 100 U/mL penicillin, 100 µg/mL streptomycin and 10% fetal bovine serum. HL60 cell line (acute myeloid leukaemia, AML) was obtained from ATCC. It was cultured in IMDM medium supplemented with 100 U/mL penicillin, 100 µg/mL streptomycin and 10% fetal bovine serum. U937 (AML) and Jurkat cells (ALL) were obtained from DMSZ, Braunschweig, Germany, and ATCC, respectively. They were cultivated in RPMI medium, supplemented with 100 U/mL penicillin, 100 µg/mL streptomycin and 10% fetal bovine serum. OPM-2 cell line (MM), was obtained from DMSZ, Braunschweig, Germany and cultured in RPMI medium supplemented with 100 U/mL penicillin, 100 µg/mL streptomycin, 10% fetal bovine serum and 1X GlutaMAXTM. All cell lines were cultured at 37 ° C with 5% CO2 in a humidified incubator. Cell culture reagents were purchased from Biowest.
# (§3) For the leukemic cell lines, the CCK-8 Cell Counting Kit (Dojindo Molecular Technologies) was used according to manufacturers instructions. Briefly, 50.000 cells were seeded in each well of a 96 well plate, and they were treated with increased amounts (0 - 100 µM) of each of the compounds, and incubated for 18 h at 37 °C, 5% CO2. After this period, 7 µl of the CCK-8 reagent were added to each well, and cells were further incubated for 2 h at 37 °C, 5% CO2. OD at 450 nm was obtained using a MultiskanTM GO microplate reader (Thermo Fisher Scientific, Waltham, MA, EE.UU). Cell viability in each condition was normalized to the measurement obtained in the non treated samples (100%), and were represented as average ± standard error of the mean (SEM).
# [4] = system: U937 (Acute myeloid leukaemia); test: as above; format: cell-based; conditions: Homo sapiens, U-937; 18 h incubation, compounds 0 - 100 µM; read-out: IC50 Cancer cells U937 (Acute myeloid leukaemia)
# Experimental: as §2, §3
# [5] = system: HL60 (Acute myeloid leukaemia); test: as above; format: cell-based; conditions: Homo sapiens, HL-60; 18 h incubation, compounds 0 - 100 µM; read-out: IC50 Cancer cells HL60 (Acute myeloid leukaemia)
# Experimental: as §2, §3
# [6] = system: Jurkat (Acute lymphoblastic leukaemia); test: as above; format: cell-based; conditions: Homo sapiens, 18 h incubation, compounds 0 - 100 µM, read-out: IC50 Cancer cells Jurkat (Acute lymphoblastic leukaemia)
# Experimental: as §2, §3
# [7] = 72 h treatment, resazurin assay, mean ± SEM
# [8] = A549, 72 h treatment, resazurin assay, mean ± SEM
Structure (SMILES),IC50 ([1]; 72 h),S.I. MeWo (Selectivity Index) [1],"IC50 ([2]; A549, 72 h)",S.I. A549 (Selectivity Index) [2],IC50 ([3]; 72 h),S.I. T24 (Selectivity Index) [3],IC50 (HaCaT cells; 72 h),IC50 (OPM-2 (Multiple myeloma)),IC50 [4],IC50 [5],IC50 [6],"IC50 [1, 7]","IC50 [2, 8]","IC50 [3, 7]",IC50 (HaCaT cells; [7])
"CS(=O)(=O)CCCN=C=S [Compound 6, 1-isothiocyanato-3-(methylsulfonyl)propane, reference compound]",29.5 ± 8.7 µM,1.3±0.2,25.2 ± 9.3 µM,1.9±0.4,10.7 ± 2.2 µM,3.3±0.1,35.9 ± 7.8 µM,13 µM,8.4 µM,7 µM,10.3 µM,–,–,–,–
"C[S+]([O-])CCCN=C=S (racemic) [rac-5, 1-isothiocyanato-3-(methylsulfinyl)propane, reference compound]",32.8 ± 5.8 µM,1.0±0.1,20.7 ± 5.7 µM,1.8±0.3,12.2 ± 2.9 µM,2.9±0.3,33 ± 5.8 µM,19.4 µM,8.5 µM,11 µM,13.7 µM,–,–,–,–
"CS[C@@H]1O[C@H](COC(C)=O)[C@@H](OC(C)=O)[C@H](N=C=S)[C@H]1OC(C)=O [Compound 13β, Methyl 2,4,6-tri-O-acetyl-3-isothiocyanato-1,3-dideoxy-1-thio-β-D-glucopyranoside]",–,1.3±0.0,–,1.5±0.2,–,1.8±0.2,–,24.9 µM,~24.2 µM,~13 µM,18.7 µM,55.9 ± 4.8 µM,51.4 ± 9.2 µM,42 ± 7.5 µM,70 ± 4.6 µM
"CCS[C@@H]1O[C@H](COC(C)=O)[C@@H](OC(C)=O)[C@H](N=C=S)[C@H]1OC(C)=O [Compound 14β, Ethyl 2,4,6-tri-O-acetyl-3-isothiocyanato-1,3-dideoxy-1-thio-β-D-glucopyranoside]",–,1.5±0.2,–,1.6±0.1,–,1.7±0.2,–,20.1 µM,~26.7 µM,~13 µM,17.8 µM,49.9 ± 8.5 µM,45.1 ± 6.8 µM,42 ± 5.7 µM,72.2 ± 13.2 µM
"CC(=O)OC[C@H]1O[C@@H]([S@+]([O-])c2ccccc2)[C@H](OC(C)=O)[C@@H](N=C=S)[C@@H]1OC(C)=O [(RS)-18β, Phenyl 2,4,6-tri-O-acetyl-3-isotiocianato-1,3-dideoxy-1[(R)-sulfinyl]-β-D-glucopyranose]",–,1.8±0.2,–,1.7±0.2,–,2.2±0.4,–,–,–,–,–,21.9 ± 2.9 µM,21.9 ± 2.5 µM,17.2 ± 1.2 µM,39.4 ± 8.7 µM
